Experimental data as given in publication PMC5562305, “Impact of novel palmitoylated prolactin-releasing peptide analogs on metabolic changes in mice with diet-induced obesity” (PLoS ONE, 2017).
Starred links: 1 amine or outer side, 2 acyl side, 3 side chain; linkers in the order of their positions; H or OH if unused. Residues, ends and D or L forms follow the SMILES beside them. Groups on a side chain read outwards from the residue. *: point of attachment. γGlu = O=C(O)[C@H](CCC(=O)[*:2])N[*:1]; Palmitoyl = CCCCCCCCCCCCCCCC(=O)*

Test system: urinary metabolites
Test: NMR-based metabolomics of urine of DIO mice
Assay type: in vivo, C57BL/6 mice
Parameters: key to DMA, Mean / DMG, Mean / MA, Mean / TMA, Mean / acetate, Mean / allantoin, Mean / carnitine, Mean / choline, Mean / cis-aconitate, Mean / creatine+creatinine, Mean / creatine, Mean / creatinine, Mean / ethanolamine, Mean / formate, Mean / galactose, Mean / glucose, Mean / glycine, Mean / lactate, Mean / succinate, Mean / vinylacetylglycine, Mean: TSA-normalized intensity of the metabolite's representative NMR signal
Settings: urine NMR signal, DIO mice
Procedure: Urine samples for NMR-based metabolomics were collected prior to the start of the interventions and at the end of the experiment. For overnight urine collection (from 5 pm to 8 am), the mice were housed in individual metabolic cages (Tecniplast, Buguggiate, Italy) without access to food. Samples were collected with the addition of NaN3 and stored at -80°C until NMR analysis.
The urine samples were thawed at room temperature and centrifuged at 13 684 x g for 5 min prior to the NMR experiments. A 200-μl aliquot of supernatant was diluted with 340 μl of H2O mixed with 60 μl of phosphate buffer (1.5 M KH2PO4 in D2O containing 2 mM NaN3 and 0.1% trimethylsilyl propionic acid (TSP), pH 7.4) and transferred to a 5-mm NMR tube. The NMR data were acquired with a 600 MHz Bruker Avance III spectrometer (Bruker BioSpin, Rheinstetten, Germany) equipped with a 5-mm TCI cryogenic probe head. All of the experiments were performed at 300 K. Automatic tuning, matching, shimming and adjusting of the 90° pulse length were performed for each sample.
As mouse urine naturally contains urinary proteins, the NMR spectra were acquired using a Carr-Purcell-Meiboom-Gill (CPMG) pulse sequence with water presaturation (Bruker pulse sequence cpmgpr1d) to eliminate the strong protein background. […] For better metabolite identification, a short J-resolved experiment with presaturation (NS = 2, SW = 16 ppm, TD = 8k, number of increments = 40, SW = 78.125 Hz in the indirect dimension, and relaxation delay = 2 s) was executed for all samples. Additional two-dimensional ^1H-^1H correlation spectroscopy (COSY) and ^1H-^13C heteronuclear multiple-quantum correlation (HMQC) experiments (Bruker pulse sequences cosygpprqf and hmqcphpr) were performed for selected samples.
The acquired data were processed using Topspin 3.2 software (Bruker BioSpin, Rheinstetten, Germany). Line broadening of 0.3 Hz was applied on free induction decays (FIDs) prior to Fourier transformation. The spectra were automatically phased, baseline corrected and referenced to the signal of TSP (0.00 ppm).
The assignment of individual metabolites was achieved by comparing the proton spectra with the spectra of pure metabolites using Chenomx NMR Suite 7.6 (Chenomx Inc., Edmonton, AB, Canada), the HMDB database and previously published metabolomic data. The identification of metabolites was supported through J-resolved and COSY experiments and, if possible, confirmed using carbon chemical shifts extracted from the HMQC spectra.
For quantitation of individual metabolites, the CPMG spectra were uniformly binned in the range of 0.10–10.00 ppm to 0.01-ppm intervals using AMIX software (Bruker BioSpin, Rheinstetten, Germany). This procedure reduced the dimensionality of the data, eliminated chemical shift variations and thus simplified the reproducible automatic quantification. Regions corresponding to water (4.60–4.90 ppm) and urea (5.60–6.00 ppm) were removed prior to analysis. As the dilutions of the original urine samples differed (due to the differences in water intake during urine collection), all of the spectra were normalized to the total spectral area (TSA). For each identified metabolite, one representative signal was chosen and then quantified as the sum of appropriate adjacent 0.01-ppm bins to cover the whole signal width. The metabolite concentration was expressed as the TSA-normalized intensity of the respective signal. For selection of an appropriate statistical method (parametric or non-parametric) the Lilliefors test of normality was performed. […] Metabolite alterations with a P < 0.05 were considered statistically significant. Statistical analysis was performed using Matlab software (“MATLAB version 8.6 (R2015b). Natick, Massachusetts: The MathWorks Inc., 2015.,” n.d.). […]

## CCCCCCCCCCCCCCCC(=O)N[C@@H](CCC(=O)NCCCC[C@H](NC(=O)[C@@H](NC(=O)[C@H](CCC(=O)O)NC(=O)[C@H](CCSC)NC(=O)[C@H](CO)NC(=O)[C@H](Cc1c[nH]cn1)NC(=O)[C@H](CCCNC(=N)N)NC(=O)[C@H](Cc1c[nH]cn1)NC(=O)[C@@H](NC(=O)[C@H](CCCNC(=N)N)NC(=O)[C@@H](N)CO)[C@@H](C)O)[C@@H](C)CC)C(=O)N[C@H](C(=O)N1CCC[C@H]1C(=O)N[C@@H](CC(=O)O)C(=O)N[C@H](C(=O)N[C@@H](CC(N)=O)C(=O)N1CCC[C@H]1C(=O)N[C@@H](C)C(=O)N[C@@H](Cc1c[nH]c2ccccc12)C(=O)N[C@@H](Cc1ccc(O)cc1)C(=O)N[C@@H](C)C(=O)N[C@@H](CO)C(=O)N[C@@H](CCCNC(=N)N)C(=O)NCC(=O)N[C@H](C(=O)N[C@@H](CCCNC(=N)N)C(=O)N1CCC[C@H]1C(=O)N[C@H](C(=O)NCC(=O)N[C@@H](CCCNC(=N)N)C(=O)N[C@@H](Cc1ccccc1)C(N)=O)C(C)C)[C@@H](C)CC)[C@@H](C)CC)[C@@H](C)O)C(=O)O [analog 1] (H-SRTHRHSMEIK([γGlu-Palmitoyl])TPDINPAWYASRGIRPVGRF-NH2; N-terminus assumed)
Change of group mean vs saline
  2-OG (2.45 ppm), Saline/analog1 %: 0.026%
  2-OG (3.01 ppm), Saline/analog1 %: -0.000867%
  2-PY (8.33 ppm), Saline/analog1 %: -0.107%
  3-indoxylsulfate (7.51 ppm), Saline/analog1 %: 0.024%
  3-indoxylsulfate (7.71 ppm), Saline/analog1 %: 0.023%
  4-PY (7.97 ppm), Saline/analog1 %: -0.088%
  4-PY (8.55 ppm), Saline/analog1 %: -0.153%
  DMA, Saline/analog1 %: 0.019%
  MNA-Nox (8.75 ppm), Saline/analog1 %: -0.117%
  N-carbamoylalanine (2.38 ppm), Saline/analog1 %: 0.020%
  N-carbamoylalanine (3.31 ppm), Saline/analog1 %: -0.071%
  N-isovalerylglycine + oxovalerate (0.92 ppm), Saline/analog1 %: 0.093%
  TMA, Saline/analog1 %: -0.084%
  acetate, Saline/analog1 %: 0.161%
  allantoin, Saline/analog1 %: 0.042%
  carnitine, Saline/analog1 %: 0.063%
  choline, Saline/analog1 %: 0.027%
  cis-aconitate, Saline/analog1 %: -0.010%
  citrate (2.55 ppm), Saline/analog1 %: -0.078%
  citrate (2.69 ppm), Saline/analog1 %: -0.081%
  creatine+creatinine, Saline/analog1 %: 0.078%
  creatine, Saline/analog1 %: -0.018%
  creatinine, Saline/analog1 %: 0.087%
  ethanolamine, Saline/analog1 %: -0.040%
  formate, Saline/analog1 %: 0.026%
  fumarate, Saline/analog1 %: -0.176%
  galactose, Saline/analog1 %: -0.073%
  glucose, Saline/analog1 %: -0.101%
  glycine, Saline/analog1 %: -0.064%
  hexanoylglycine + acids (0.88 ppm), Saline/analog1 %: 0.195%
  hippurate (7.55 ppm), Saline/analog1 %: -0.067%
  hippurate (7.64 ppm), Saline/analog1 %: -0.069%
  hippurate (7.84 ppm), Saline/analog1 %: -0.067%
  lactate, Saline/analog1 %: 0.188%
  multiplet acids (1.6 ppm), Saline/analog1 %: 0.198%
  putrescin, Saline/analog1 %: 0.025%
  succinate, Saline/analog1 %: 0.118%
  taurine (3.27 ppm), Saline/analog1 %: -0.289%
  taurine (3.43 ppm), Saline/analog1 %: -0.352%
  trigonelline (8.84 ppm), Saline/analog1 %: -0.128%
  trigonelline (9.13 ppm), Saline/analog1 %: -0.163%
  vinylacetylglycine, Saline/analog1 %: 0.197%
Group mean
  2-OG (2.45 ppm), Mean: 12.062
  2-OG (3.01 ppm), Mean: 10.231
  2-PY (8.33 ppm), Mean: 1.038
  3-indoxylsulfate (7.51 ppm), Mean: 1.334
  3-indoxylsulfate (7.71 ppm), Mean: 0.788
  4-PY (7.97 ppm), Mean: 1.650
  4-PY (8.55 ppm), Mean: 0.491
  DMA, Mean: 5.115
  DMG, Mean: 1.908
  MA, Mean: 2.952
  MNA (8.90 ppm), Mean: 0.369
  MNA (8.97 ppm), Mean: 0.353
  MNA (9.265 ppm), Mean: 0.370
  MNA-Nox (7.75 ppm), Mean: 0.962
  MNA-Nox (8.13 ppm), Mean: 0.690
  MNA-Nox (8.49 ppm), Mean: 0.452
  MNA-Nox (8.75 ppm), Mean: 0.431
  N-carbamoylalanine (2.38 ppm), Mean: 10.982
  N-carbamoylalanine (3.31 ppm), Mean: 8.810
  N-isovalerylglycine + oxovalerate (0.92 ppm), Mean: 15.843
  TMA, Mean: 11.127
  acetate, Mean: 4.363
  allantoin, Mean: 21.031
  carnitine, Mean: 6.328
  choline, Mean: 2.023
  cis-aconitate, Mean: 8.788
  citrate (2.55 ppm), Mean: 30.039
  citrate (2.69 ppm), Mean: 27.401
  creatine+creatinine, Mean: 24.594
  creatine, Mean: 6.851
  creatinine, Mean: 12.065
  ethanolamine, Mean: 7.631
  formate, Mean: 0.204
  fumarate, Mean: 0.145
  galactose, Mean: 0.718
  glucose, Mean: 3.260
  glycine, Mean: 5.697
  hexanoylglycine + acids (0.88 ppm), Mean: 15.760
  hippurate (7.55 ppm), Mean: 4.327
  hippurate (7.64 ppm), Mean: 2.207
  hippurate (7.84 ppm), Mean: 4.594
  lactate, Mean: 7.323
  multiplet acids (1.6 ppm), Mean: 12.799
  putrescin, Mean: 9.134
  succinate, Mean: 12.041
  taurine (3.27 ppm), Mean: 18.310
  taurine (3.43 ppm), Mean: 14.649
  trigonelline (8.84 ppm), Mean: 0.272
  trigonelline (9.13 ppm), Mean: 0.107
  vinylacetylglycine, Mean: 3.595
